According to article PMC5931107, “Clinical pharmacodynamic/exposure characterisation of the multikinase inhibitor ilorasertib (ABT-348) in a phase 1 dose-escalation trial” (British Journal of Cancer, 2018):
Where two headings read alike, the source gives them in different places. Marks after values point to notes of the source that are not given here.

Key:
[1] = Plasma pharmacokinetics, Arm III (i.v. infusion), phase 1 trial; format: in vivo, human; details: for half-life: read-out: t1/2 (harmonic mean) (converted)
Experimental: Pharmacokinetics of ilorasertib were evaluated in the dose-escalation cohort on blood samples that were collected on cycle 1 days 1 and 15. Parameters determined: Cmax, time to Cmax (Tmax), terminal phase elimination half-life (t1/2), clearance, apparent oral clearance (CL/F), and area under the plasma concentration-time curve from time 0 to time of last measurable concentration (AUCt) and from time 0 to infinity (AUC∞). For Arm I, blood samples were collected prior to dosing and at 0.5, 1, 2, 3, 4, 6, 8, 10 or 12, and 24 h after dosing on cycle 1 days 1 and 15; of note, for institutions not able to collect the 10- or 12-h post-dose sample, the 24-h sample was replaced with 22-h and 28-h post-dose samples. In Arm II, for the first dose, blood samples were collected pre-dose and at 1, 2, 3, and 4 h post-dose on cycle 1 days 1 and 15; for the second dose, samples were collected pre-dose and at 1, 2, 3, 4, 18, and 24 h after second dose on cycle 1 days 1 and 15. In Arm III, blood samples were collected prior to infusion, at 1 h 55 min (just before end of infusion), and at 0.5, 1, 2, 4, 6, 8, 10, and 24 h after end of infusion on cycle 1 days 1 and 15; here also, for institutions not able to collect the 8-h or 10-h after-end-of-infusion samples, the 24-h sample was replaced with 22-h and 28-h post-dose samples. The liquid chromatography (LC)-mass spectrometry (MS)/MS method was developed and validated in the Bioanalysis Department of AbbVie. Fifty microliter of human plasma (K2EDTA as anticoagulant) was fortified with 300 μL of deuterium-stable labelled internal standard and mixed well. A HybridSPE precipitation plate (50 mg/96 wells, Supelco Analytical, Munich, Germany) was used to directly load and elute (under slight vacuum) the fortified samples into a clean collection plate. Samples were dried before reconstitution with 100 μL of 20/80 (v/v) acetonitrile/water, and injected for LC-MS/MS analysis. A Halo C8 (Wilmington, DE, USA; 2.7 μm, 2.1 × 30 mm) was used on an Agilent 1290 Infinity UPLC pump (Agilent Technologies, Santa Clara, CA) to carry out the separation. An isocratic condition with 25/75/0.1 (v/v/v) acetonitrile/water/98% formic acid was used as the mobile phase. The flow rate was set to be 0.6 mL/min. An MPS 3 C ([…] Ruhr, Germany) autosampler was used to introduce samples onto the UPLC system. An API 4000 mass spectrometer (Applied Biosystems, Foster City, CA) was used in the multiple reactions monitoring mode for the detection and quantitation of analyte. Descriptive statistics were used for demographic variables. The numbers and percentages of patients with treatment-emergent AEs (TEAEs) were tabulated using the Medical Dictionary for Regulatory Activities version 16.0 system organ class and preferred term, and further classified according to CTCAE version 4.0 criteria. The safety data set included all patients who received one or more doses of ilorasertib. The pharmacokinetic data set included all patients who received one or more doses of ilorasertib and had one or more pharmacokinetic samples. Values for pharmacokinetic parameters were determined using non-compartmental methods, with data analysed separately for each arm. A repeated measures analysis was performed for Tmax and dose-normalised Cmax, AUCt, and AUC∞. The model included random effects for patient and fixed effects for dose level, day, and the interaction of dose level and day. To assess effects of exposure on pharmacodynamic biomarkers, Cmax was employed as the directly measured marker of exposure for the rapid changes in DBP and PlGF pre-steady-state, while AUC∞ reflected exposure variability at the time of post-multiple-dose skin biopsy. Descriptive statistics were used to summarise ECOG performance status. The efficacy data set included all patients who received one or more doses of ilorasertib.

Aurora A [2] = system: Aurora A; set-up: method as in PMID 22935731; details: Aurora A autophosphorylation, nocodazole-arrested HeLa cells; read-out: Cellular PD marker IC50 (95% confidence limits); cited from earlier work
FLT-3 = system: FLT-3; set-up: method as in PMID 22935731; details: 1 mM ATP; read-out: Biochemical IC50 (95% confidence limits); cited from earlier work
VEGFR3 = system: VEGFR3; set-up: method as in PMID 22935731; details: 1 mM ATP; read-out: Biochemical IC50 (95% confidence limits); cited from earlier work
Aurora A [3] = system: Aurora A; set-up: method as in PMID 22935731; details: 1 mM ATP; read-out: Biochemical IC50 (95% confidence limits); cited from earlier work
VEGFR1 = system: VEGFR1; set-up: method as in PMID 22935731; details: 1 mM ATP; read-out: Biochemical IC50 (95% confidence limits); cited from earlier work
[4] = Arm III i.v. infusion 8 mg, day 1, N=4
[5] = Arm III i.v. infusion 8 mg, day 15, N=4
[6] = Arm III i.v. infusion 16 mg, day 1, N=1
[7] = Arm III i.v. infusion 16 mg, day 15, N=1
[8] = Arm III i.v. infusion 32 mg, day 1, N=2, mean (individual)
[9] = Arm III i.v. infusion 32 mg, day 15, N=2, mean (individual)
[10] = Arm III i.v. infusion all doses, day 1, N=7
[11] = Arm III i.v. infusion all doses, day 15, N=7
[12] = human, plasma, iv, 8 mg, Arm III i.v. infusion 8 mg, day 1, N=3
[13] = human, plasma, iv, 8 mg, Arm III i.v. infusion 8 mg, day 15, N=3
[14] = human, plasma, iv, 16 mg, Arm III i.v. infusion 16 mg, day 1, N=1
[15] = human, plasma, iv, 16 mg, Arm III i.v. infusion 16 mg, day 15, N=1
[16] = human, plasma, iv, 32 mg, Arm III i.v. infusion 32 mg, day 1, N=2, mean (individual)
[17] = human, plasma, iv, 32 mg, Arm III i.v. infusion 32 mg, day 15, N=2, mean (individual)
[18] = human, plasma, iv, Arm III i.v. infusion all doses, day 1, N=6
[19] = human, plasma, iv, Arm III i.v. infusion all doses, day 15, N=6

For Nc1ncc(-c2cnn(CCO)c2)c2scc(-c3ccc(NC(=O)Nc4cccc(F)c4)cc3)c12 [ilorasertib, Ilorasertib], which “AUC∞/dose” value ([1]; Arm III i.v. infusion 8 mg, day 1, N=3) is on record?
The value was 273 ± 38.5^b ng•h/mL/mg.

What about the AUCt/dose [1, 4] of the same compound?
Its AUCt/dose is 185 ± 42.9 ng·h/mL/mg.

What about the Cmax/dose [1, 4] of the same compound?
Its Cmax/dose is 29.3 ± 10.3 ng/mL/mg.

And the “AUC∞/dose” value ([1]; Arm III i.v. infusion 8 mg, day 15, N=3)?
The value was 360 ± 249^b ng•h/mL/mg.

What about the AUCt/dose [1, 5] of the same compound?
The AUCt/dose was 219 ± 71.5 ng·h/mL/mg.

And the Cmax/dose [1, 5]?
The Cmax/dose was 30.8 ± 13.3 ng/mL/mg.

What about the AUCt/dose [1, 6] of the same compound?
The AUCt/dose was 119 ng·h/mL/mg.

And the “AUC∞/dose” value [1, 6]?
Its value is 152 ng·h/mL/mg.

What about the Cmax [1, 6] of the same compound?
The Cmax was 0.37 µg/mL.

And the Cmax/dose [1, 6]?
The Cmax/dose was 22.9 ng/mL/mg.

And the AUCt/dose [1, 7]?
Its AUCt/dose is 190 ng·h/mL/mg.

And the “AUC∞/dose” value [1, 7]?
Its value is 215 ng·h/mL/mg.

And the Cmax [1, 7]?
Its Cmax is 0.74 µg/mL.

What about the Cmax/dose [1, 7] of the same compound?
The Cmax/dose was 46 ng/mL/mg.

What about the AUCt/dose [1, 8] of the same compound?
Its AUCt/dose is 265 (390, 139) ng•h/mL/mg.

What about the “AUC∞/dose” value [1, 8] of the same compound?
Its value is 287 (424, 150) ng•h/mL/mg.

What about the Cmax [1, 8] of the same compound?
The Cmax was 1.31 (1.69, 0.94) μg/mL.

And the Cmax/dose [1, 8]?
The Cmax/dose was 41.0 (52.8, 29.2) ng/mL/mg.

What about the AUCt/dose [1, 9] of the same compound?
The AUCt/dose was 228 (304, 153) ng•h/mL/mg.

And the “AUC∞/dose” value [1, 9]?
The value was 263 (358, 168) ng•h/mL/mg.

And the Cmax [1, 9]?
Its Cmax is 1.37 (1.85, 0.88) μg/mL.

And the Cmax/dose [1, 9]?
Its Cmax/dose is 42.7 (57.8, 27.6) ng/mL/mg.

What about the “AUC∞/dose” value ([1]; Arm III i.v. infusion all doses, day 1, N=6) of the same compound?
Its value is 258 ± 104^d ng•h/mL/mg.

And the AUCt/dose [1, 10]?
The AUCt/dose was 198 ± 93.7 ng·h/mL/mg.

And the Cmax/dose [1, 10]?
Its Cmax/dose is 31.8 ± 12.0 ng/mL/mg.

What about the “AUC∞/dose” value ([1]; Arm III i.v. infusion all doses, day 15, N=6) of the same compound?
The value was 303 ± 180^d ng•h/mL/mg.

And the AUCt/dose [1, 11]?
Its AUCt/dose is 217 ± 68.0 ng·h/mL/mg.

What about the Cmax/dose [1, 11] of the same compound?
Its Cmax/dose is 36.4 ± 14.7 ng/mL/mg.

And the AUC(0-inf) [1, 12]?
The AUC(0-inf) was 2190 ± 310 ng·h/mL.

What about the clearance [1, 12] of the same compound?
Its clearance is 61.8 mL/min.

And the half-life [1, 12]?
The half-life was 8.5 ± 4.1 h.

And the AUC(0-t) ([1]; human, plasma, iv, 8 mg, Arm III i.v. infusion 8 mg, day 1, N=4)?
The AUC(0-t) was 1480 ± 340 ng·h/mL.

And the Cmax ([1]; human, plasma, iv, 8 mg, Arm III i.v. infusion 8 mg, day 1, N=4, read-out: Cmax)?
The Cmax was 0.23 ± 0.08 µg/mL.

What about the AUC(0-inf) [1, 13] of the same compound?
Its AUC(0-inf) is 2880 ± 1990 ng·h/mL.

And the clearance [1, 13]?
Its clearance is 60.2 mL/min.

What about the AUC(0-t) ([1]; human, plasma, iv, 8 mg, Arm III i.v. infusion 8 mg, day 15, N=4) of the same compound?
The AUC(0-t) was 1750 ± 570 ng·h/mL.

And the Cmax ([1]; human, plasma, iv, 8 mg, Arm III i.v. infusion 8 mg, day 15, N=4, read-out: Cmax)?
Its Cmax is 0.25 ± 0.11 µg/mL.

And the AUC(0-inf) [1, 14]?
Its AUC(0-inf) is 2440 ng·h/mL.

And the AUC(0-t) [1, 14]?
Its AUC(0-t) is 1910 ng·h/mL.

What about the clearance [1, 14] of the same compound?
Its clearance is 109 mL/min.

And the AUC(0-inf) [1, 15]?
The AUC(0-inf) was 3450 ng·h/mL.

What about the AUC(0-t) [1, 15] of the same compound?
The AUC(0-t) was 3040 ng·h/mL.

And the clearance [1, 15]?
Its clearance is 77.3 mL/min.

What about the half-life [1, 15] of the same compound?
The half-life was 9.6 h.

What about the AUC(0-inf) [1, 16] of the same compound?
The AUC(0-inf) was 9180 ng·h/mL.

What about the AUC(0-t) [1, 16] of the same compound?
Its AUC(0-t) is 8460 ng·h/mL.

What about the clearance [1, 16] of the same compound?
The clearance was 75.2 mL/min.

And the half-life [1, 16]?
Its half-life is 9.3 h.

And the AUC(0-inf) [1, 17]?
Its AUC(0-inf) is 8410 ng·h/mL.

And the AUC(0-t) [1, 17]?
The AUC(0-t) was 7300 ng·h/mL.

What about the clearance [1, 17] of the same compound?
Its clearance is 73 mL/min.

What about the clearance [1, 18] of the same compound?
The clearance was 74.2 mL/min.

And the half-life [1, 18]?
Its half-life is 9.1 ± 3.3 h.

And the clearance [1, 19]?
The clearance was 67.3 mL/min.

And the half-life [1, 19]?
The half-life was 12.1 ± 4.4 h.

And the Tmax ([1]; human, plasma, iv, Arm III i.v. infusion 8 mg, day 1, N=4)?
Its Tmax is 2 ± 0.2 h.

And the Tmax ([1]; human, plasma, iv, Arm III i.v. infusion all doses, day 1, N=7)?
Its Tmax is 2 ± 0.2 h.

What about the IC50 (VEGFR3) of the same compound?
Its IC50 is 43 nM.

And the IC50 (VEGFR1)?
The IC50 was 1 nM.
